Reference: the supplement of paper PMC10307832

Experiments:
Experiment in all cases: relative viability (nuclei count vs DMSO), 5 days (fraction); higher = more cells survive
[1] = compound: Cc1ccc2nc(NCCN)c3ncc(C)n3c2c1
Outline: (§1)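 Five library-drug doses, separated by factors of √10, were pinned into 1536-well plates holding lung cancer cell lines after an overnight stay at 37 °C. Cells were fixed, permeabilised and Hoechst-stained in one step after 5 days without medium change, then imaged at 4×. Viability compares treated-well with vehicle-well nuclei, counted in MetaXpress, as a median across plates. Passing plates had control CV below 25% and at least one doubling.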

[2] = compound: O=C(/C=C/c1ccccc1)NC(NC(=S)Nc1cccc2cccnc12)C(Cl)(Cl)Cl [Salubrinal]
Outline: as §1

[3] = compound: Cc1ccc2nc(NCCN)c3ncc(C)n3c2c1 + CC1(C)CCC(c2ccc(Cl)cc2)=C(CN2CCN(c3ccc(C(=O)NS(=O)(=O)c4ccc(N[C@H](CCN5CCOCC5)CSc5ccccc5)c(S(=O)(=O)C(F)(F)F)c4)cc3)CC2)C1 [Navitoclax] (partner 0.5 µM)
Outline: (§2)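 Lung cancer cell lines were seeded in 1536-well plates and dosed by pin tool the next day, with either a single drug or a fixed anchor-drug dose combined with five library-drug doses (not always all listed) spaced in √10 steps. Five days later, one step fixed the cells and stained their nuclei (final 0.05% Triton X-100, 1% formaldehyde, 1 ug/ml Hoechst), and nuclei were counted on 4× images. Relative viability is the nuclei count in treated wells divided by the count in vehicle wells, and each value is the median of duplicate plates.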

[4] = compound: O=C(/C=C/c1ccccc1)NC(NC(=S)Nc1cccc2cccnc12)C(Cl)(Cl)Cl [Salubrinal] + N=C(N)NC(=N)NCCc1ccccc1 [Phenformin] (partner 250 µM)
Outline: as §2

Cell Line	relative viability ([1]; 0.04 µM)	relative viability ([1]; 0.1265 µM)	relative viability ([1]; 0.4 µM)	relative viability ([1]; 1.265 µM)	relative viability ([1]; 4 µM)	relative viability ([2]; 0.08 µM)	relative viability ([2]; 0.253 µM)	relative viability ([2]; 0.8 µM)	relative viability ([2]; 2.53 µM)	relative viability ([2]; 8 µM)	relative viability ([3]; first compound 0.04 µM)	relative viability ([3]; first compound 0.1265 µM)	relative viability ([3]; first compound 0.4 µM)	relative viability ([3]; first compound 1.265 µM)	relative viability ([3]; first compound 4 µM)	relative viability ([4]; first compound 0.08 µM)	relative viability ([4]; first compound 0.253 µM)	relative viability ([4]; first compound 0.8 µM)	relative viability ([4]; first compound 2.53 µM)	relative viability ([4]; first compound 8 µM)
201T	1.03	0.993	0.978	1.04	0.948	1.03	0.869	1.12	1.02	0.983	1.25	1.22	1.14	1.17	1.23	0.44	0.32	0.508	0.462	0.456
HCC-44	0.976	0.945	0.963	0.972	0.914	0.952	0.97	1.07	1.02	0.973	1.1	0.901	0.951	0.829	0.937	0.193	0.212	0.391	0.364	0.182
NCI-H596	0.952	0.934	1.02	0.937	0.909	1.08	0.89	1.01	0.896	0.982	0.945	0.896	0.916	0.678	1.11	0.98	0.703	0.68	0.757	0.704
H3255	1.02	0.9	0.886	1.06	0.843	1.07	0.965	1.11	0.958	0.949	0.666	0.479	0.638	0.535	0.469	0.364	0.349	0.44	0.386	0.335
NCI-H647	1.13	0.993	0.934	0.865	0.741	1.18	0.98	1.11	0.964	0.884	1.08	1.06	1.17	0.804	0.908	0.607	0.293	0.885	0.595	0.452
NCI-H2023	1.06	0.935	1.09	1.08	0.843	1.15	0.996	1.06	0.955	0.781	1.05	0.999	1.03	1.03	0.954	0.471	0.37	0.461	0.368	0.276
NCI-H23	1.06	1.11	0.853	1.09	0.907	1.11	0.858	1.18	0.995	1.08	0.867	0.904	0.822	0.791	0.814	0.84	0.939	0.8	0.748	0.814
NCI-H520	1.13	0.912	0.933	0.915	0.845	1.05	1.01	1.07	1.03	1.14	1.19	1.09	1.12	1.1	0.953	0.56	0.556	0.831	0.646	0.54
A549	1.09	0.927	1.01	0.958	0.879	1.2	0.855	1.03	0.99	0.924	1.27	1.25	1.37	1.2	0.955	0.174	0.143	0.175	0.119	0.17
NCI-H460	0.99	0.971	0.99	0.999	0.943	1.16	0.946	1.11	0.983	0.918	1.27	1.08	1.1	1.22	1.06	0.706	0.32	0.629	0.515	0.49
EKVX	1.07	0.889	0.992	0.948	0.826	1.04	0.837	1.01	1.06	1.04	1.1	0.964	0.924	0.992	0.883	0.228	0.23	0.236	0.203	0.228
NCI-H1944	0.985	0.96	0.784	1.05	0.941	1.11	1.01	0.975	0.962	1	1.11	1.01	1.04	1.06	1.03	0.198	0.191	0.214	0.185	0.178
EPLC-272H	1.01	1.13	0.992	1	0.835	0.917	0.884	1.07	0.98	0.765	1.01	1.09	1.17	1.04	0.93	0.256	0.236	0.342	0.259	0.282
NCI-H1395	0.959	0.941	0.844	0.859	0.633	0.882	1.01	1.08	1.01	0.769	1.27	1.13	1.31	1	1.1	0.473	0.459	0.451	0.453	0.431
NCI-H2126	1.1	0.993	0.958	0.995	0.893	1.07	0.921	1.08	1.05	0.985	0.881	0.886	0.815	0.746	0.792	0.512	0.537	0.562	0.563	0.519
LXF-289	0.985	0.966	1.01	1.01	1.02	1.04	0.945	1.01	0.995	0.975	0.946	0.909	0.936	0.922	0.952	0.542	0.451	0.555	0.504	0.502
